The numbers were not newly measured in patent US8881894B2, “Multiple-compartment applicator” (Sonovia Holdings LLC, priority 2008, dated 2014), which cites them from elsewhere.

For this series the following is noted: in water.

On to `O=C1O[C@H]([C@@H](O)CO)C(O)=C1O` [L-Ascorbic acid], for which the “pK of acid-ionizable hydrogen” value is listed as 4.2.
